Activity calls are given as the source filed them. The calls are words filed in the database; no cut-off is given here.
Columns and labels:
[1] = Inhibition of PP1
[2] = Inhibition of PP2A

In the case of `C=C1[C@@H](O)[C@@H]2O[C@]3(CC[C@H](/C=C/[C@@H](C)[C@@H]4CC(C)=C[C@@]5(O[C@H](C[C@@](C)(O)C(=O)OC)CC[C@H]5O)O4)O3)CC[C@H]2O[C@@H]1[C@@H](O)C[C@H](C)[C@H]1O[C@@]2(CCCCO2)CC[C@H]1C`, the Activity [1] is reported as “inactive” and the Activity [2] is reported as “inactive”.

With `C=C1[C@@H](O)[C@@H]2O[C@]3(CC[C@H](/C=C/[C@@H](C)[C@@H]4CC(C)=C[C@@]5(O[C@H](C[C@@](C)(O)C(=O)OC/C(C)=C/C=C/CO)CC[C@H]5O)O4)O3)CC[C@H]2O[C@@H]1[C@@H](O)C[C@H](C)[C@H]1O[C@@]2(CCCCO2)CC[C@H]1C` the Activity [1] was “inactive” and the Activity [2] was “inactive”.

With `C=C1[C@@H](O)[C@@H]2O[C@]3(CC[C@H](/C=C/[C@@H](C)[C@@H]4CC(C)=C[C@@]5(O[C@H](C[C@@](C)(O)C(=O)OC/C(C)=C/C=C/CCO)CC[C@H]5O)O4)O3)CC[C@H]2O[C@@H]1[C@@H](O)C[C@H](C)[C@H]1O[C@@]2(CCCCO2)CC[C@H]1C` the Activity [1] was “inactive” and the Activity [2] was “inactive”.
